From the supplement of paper PMC11208160

Experiment: recombinant barcode read abundance after kanamycin selection (control-corrected) (log10(CPM+1)); higher = more efficient recombination; sequences stand for … in AGTGCAGAGAAAATCGGCCAGTTTTCTCTGCCTGCAGTCCGCATGCCGT…AGATTTATGCAGCGGACTGCCTTTCTCCCAAAGTGATAAACCGGACAGTATCATGGACCGGTTTTCCCGGTAATCCGTATTTGCAAGGTTGGTTTCACT; site = the 11-nt target
Outline: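 Recombination efficiency was calculated from barcode counts at recombinant junctions, normalized to counts per million, averaged and corrected by the control. Each value is given as log10(CPM+1). The constructs were Gibson-cloned oligos (promoter, target, barcode, J23119-driven first 104 bridge RNA bases) in a vector with the remaining 73 bp and a T7-inducible recombinase, co-electroporated into E. coli with a donor plasmid and plated in duplicate on chloramphenicol/ampicillin LB agar (control) or chloramphenicol/ampicillin/kanamycin with 0.1 mM IPTG.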
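Further: IS621 recombinase and bridge RNA in Escherichia coli cells.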

| Sequence | recombinant barcode read abundance (log10) |
| --- | --- |
| TCCTACTCTTGGGTTCTAACCTGTTGCCG (site TCCGACTCTCG) | 0.0792 |
| TCCTACTCTTGGGTTCTAACCTGTTGCCG (site TCCTACTCTCG) | 0.688 |
| TCCTAGACTTGGGTTCTAACCTGTTGCGG (site TCCTAGACTCC) | 1.53 |
| TCCTAGACTTGGGTTCTAACCTGTTGCGG (site TTCTAGACTCC) | 0.117 |
| TCCTAGGCTTGGGTTCTAACCTGTTGCGC (site TCCTAGGCTGC) | 1.72 |
| TCCTAGGCTTGGGTTCTAACCTGTTGCGC (site TCTTAGGCTAC) | 0.161 |
| TCCTATGCTTGGGTTCTAACCTGTTGCTA (site CAAGTGACTAG) | 0.0648 |
| TCCTATGCTTGGGTTCTAACCTGTTGCTA (site TCCTATGCTTA) | 0.0755 |
| TCCTATTCTTGGGTTCTAACCTGTTGCGA (site TACTATGCTTC) | 0.141 |
| TCCTATTCTTGGGTTCTAACCTGTTGCGA (site TCCTATTCTTC) | 0.544 |
| TCCTGGGCTTGGGTTCTAACCTGTTGCCG (site TCCTGGGCTCG) | 0.0509 |
| TCCTGGGCTTGGGTTCTAACCTGTTGCCG (site TTATGGGCTCG) | 0.0305 |
| TCCTGTACTTGGGTTCTAACCTGTTGCAT (site TCCAGTACTAT) | 0.272 |
| TCCTGTACTTGGGTTCTAACCTGTTGCAT (site TCCCGTACTAT) | 0.705 |
| TCCTGTACTTGGGTTCTAACCTGTTGCAT (site TCCGGTACTAT) | 0.00868 |
| TCCTGTACTTGGGTTCTAACCTGTTGCAT (site TCCTGTACTAT) | 1.01 |
| TCGAACCCTTGGGTTCTAACCTGTTGCGA (site TCGAACCCTTC) | 0.927 |
| TCGAACCCTTGGGTTCTAACCTGTTGCGA (site TCGCACCCTTC) | 0.0454 |
| TCGAACCCTTGGGTTCTAACCTGTTGCGA (site TCGGACCCTTC) | 0.114 |
| TCGAACCCTTGGGTTCTAACCTGTTGCGA (site TCGTACCCTTC) | 0.0144 |
| TCGAACCCTTGGGTTCTAACCTGTTGCTT (site GCGAACCCTAA) | 0.0343 |
| TCGAACCCTTGGGTTCTAACCTGTTGCTT (site TCGAACCCTAA) | 0.258 |

| Sequence | recombinant barcode read abundance (log10) |
| --- | --- |
| TCGAAGGCTTGGGTTCTAACCTGTTGCCT (site TCAAAGGCTAG) | 0.411 |
| TCGAAGGCTTGGGTTCTAACCTGTTGCCT (site TCCAAGGCTAG) | 0.0717 |
| TCGAAGGCTTGGGTTCTAACCTGTTGCCT (site TCGAAGGCTAG) | 0.382 |
| TCGAAGGCTTGGGTTCTAACCTGTTGCCT (site TCTAAGGCTAG) | 0.0236 |
| TCGAATCCTTGGGTTCTAACCTGTTGCCT (site TCGAAACCTAG) | 0.0251 |
| TCGAATCCTTGGGTTCTAACCTGTTGCCT (site TCGAACCCTAG) | 0.0582 |
| TCGAATCCTTGGGTTCTAACCTGTTGCCT (site TCGAAGCCTAG) | 0.0385 |
| TCGAATCCTTGGGTTCTAACCTGTTGCCT (site TCGAATCCTAG) | 0.173 |
| TCGAATGCTTGGGTTCTAACCTGTTGCCT (site TCGAATGCTAG) | 0.0629 |
| TCGAATGCTTGGGTTCTAACCTGTTGCCT (site TCGGATGCTAA) | 0.0663 |
| TCGACGCCTTGGGTTCTAACCTGTTGCTT (site ACGACGTCTAA) | 0.0317 |
| TCGACGCCTTGGGTTCTAACCTGTTGCTT (site TCGACGCCTAA) | 0.145 |
| TCGAGAGCTTGGGTTCTAACCTGTTGCTA (site TCGAGAGCTCG) | 0.183 |
| TCGAGAGCTTGGGTTCTAACCTGTTGCTA (site TCGAGAGCTTA) | 0.446 |
| TCGAGTGCTTGGGTTCTAACCTGTTGCCT (site TCGAGTACTAG) | 0.187 |
| TCGAGTGCTTGGGTTCTAACCTGTTGCCT (site TCGAGTCCTAG) | 0.19 |
| TCGAGTGCTTGGGTTCTAACCTGTTGCCT (site TCGAGTGCTAG) | 0.0982 |
| TCGAGTGCTTGGGTTCTAACCTGTTGCCT (site TCGAGTTCTAG) | 0 |
| TCGCAGACTTGGGTTCTAACCTGTTGCCT (site CCGCAGACTTG) | 0.54 |
| TCGCAGACTTGGGTTCTAACCTGTTGCCT (site TCGCAGACTAG) | 0.286 |
| TCGCATTCTTGGGTTCTAACCTGTTGCAT (site TCGCATTCTAT) | 0.159 |
| TCGCATTCTTGGGTTCTAACCTGTTGCAT (site TCGCGTTCTAA) | 0.198 |

| Sequence | recombinant barcode read abundance (log10) |
| --- | --- |
| TCGCGAACTTGGGTTCTAACCTGTTGCCT (site TCGCGAACTAG) | 0.252 |
| TCGCGAACTTGGGTTCTAACCTGTTGCCT (site TCGGGAACTAG) | 0 |
| TCGCGTACTTGGGTTCTAACCTGTTGCAT (site GCTCGTACTAT) | 0.0605 |
| TCGCGTACTTGGGTTCTAACCTGTTGCAT (site TCGCGTACTAT) | 0.189 |
| TCGCGTCCTTGGGTTCTAACCTGTTGCAA (site TAGCGTCCTGT) | 0.119 |
| TCGCGTCCTTGGGTTCTAACCTGTTGCAA (site TCGCGTCCTTT) | 0.402 |
| TCGCGTCCTTGGGTTCTAACCTGTTGCAG (site TCACGTCCTCT) | 0.231 |
| TCGCGTCCTTGGGTTCTAACCTGTTGCAG (site TCGCGTCCTCT) | 0.379 |
| TCGCGTGCTTGGGTTCTAACCTGTTGCGG (site CATTCCACTAG) | 0.0782 |
| TCGCGTGCTTGGGTTCTAACCTGTTGCGG (site TCGCGTGCTCC) | 0.363 |
| TCGCGTTCTTGGGTTCTAACCTGTTGCTT (site TCGCATTCTAT) | 0.217 |
| TCGCGTTCTTGGGTTCTAACCTGTTGCTT (site TCGCGTTCTAA) | 0.677 |
| TCGCTAGCTTGGGTTCTAACCTGTTGCCT (site ACGCTAGCTAG) | 0.0632 |
| TCGCTAGCTTGGGTTCTAACCTGTTGCCT (site CCGCTAGCTAG) | 0.4 |
| TCGCTAGCTTGGGTTCTAACCTGTTGCCT (site GCGCTAGCTAG) | 0.0173 |
| TCGCTAGCTTGGGTTCTAACCTGTTGCCT (site TCGCTAGCTAG) | 0.0976 |
| TCGTATACTTGGGTTCTAACCTGTTGCGG (site TAGTATACTCA) | 0.193 |
| TCGTATACTTGGGTTCTAACCTGTTGCGG (site TCGTATACTCC) | 0.396 |
| TCGTGAGCTTGGGTTCTAACCTGTTGCCT (site TAGTGAGCTAG) | 0.0646 |
| TCGTGAGCTTGGGTTCTAACCTGTTGCCT (site TCGTGAGCTAG) | 0.226 |
| TCGTGAGCTTGGGTTCTAACCTGTTGCTG (site GGTGACCCTAT) | 0.147 |
| TCGTGAGCTTGGGTTCTAACCTGTTGCTG (site TCGTGAGCTCA) | 0.301 |
